The values below come from patent US20060019967A1 (priority 2004, published 2006).

The experiment addresses HCV NS3 protease (Hepatitis C virus genotype 1b, UniProt P26663). Type of experiment: biochemical.

Sequence of HCV NS3 protease (P26663 1027-1206, other chains not shown): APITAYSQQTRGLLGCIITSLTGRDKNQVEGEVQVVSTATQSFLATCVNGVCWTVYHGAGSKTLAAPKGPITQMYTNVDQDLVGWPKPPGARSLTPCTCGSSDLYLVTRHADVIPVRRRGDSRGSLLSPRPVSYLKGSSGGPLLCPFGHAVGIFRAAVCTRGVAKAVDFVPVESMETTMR

`CCOC(=O)/C(C#N)=C/Nc1ccc(S(=O)(=O)c2ccc(N/C=C(\C#N)C(=O)OCC)cc2)cc1` [Compound 14]: the “inhibition of the proteolytic activity of HCV NS3 protease” value (shortened to “inhibition”) is given as “effectively inhibited”.
For `CN(C)/C=C(/C(=O)c1cccs1)c1nnnn1-c1ccccc1` [Compound 25], the “inhibition” value is recorded as “effectively inhibited”.
Consider `Cc1cc(S(=O)(=O)c2c([N+](=O)[O-])cc(C(F)(F)F)cc2[N+](=O)[O-])c(Cl)cc1Cl` [Compound 1], for which the “inhibition” value was “effectively inhibited”.
With `O=C(CC1=NCCS1)c1cccs1` [Compound 21], the “inhibition” value is reported as “effectively inhibited”.
With `CCOC(=O)C(=CNc1ccc(S(=O)(=O)c2ccc(NC=C(C(=O)OCC)C(=O)OCC)cc2)cc1)C(=O)OCC` [Compound 20], the “inhibition” value is given as “effectively inhibited”.
